In US20120003191A1, “VALPROIC ACID, DERIVATIVES, ANALOGUES, AND COMPOSITIONS INCLUDING SAME AND METHODS FOR THEIR THERAPEUTIC USE” (priority 2009, published 2012):

Legend:
[1] = humans; cited from earlier work
mTOR = assay: Western blotting of activated mTOR in α7+/− myotubes; type: cell-based, mouse; conditions: VPA for 48 or 72 hours
Method: (§1) α7^+/− myogenic cells were cultured on 1% gelatin-coated plastic plates in Ham's F-10 growth medium (20% FBS, 0.5% chick embryo extract, 5 ng/ml bFGF, 2 mM glutamine, 100 U/ml penicillin and 100 μg/ml streptomycin). After six passages, cells were grown in DMEM containing 20% FBS, 0.5% chick embryo extract, 2 mM glutamine, 100 U/ml penicillin and 100 μg/ml streptomycin. Differentiation was induced by switching the medium to DMEM containing 2% horse serum and antibiotics when cells attained 90% confluence. After 48 hours of differentiation, 2 mM VPA was added and supplied fresh every 24 hours. Wortmannin was used at 100 nM and added fresh every 24 hours.
Cell lysates of differentiating cells on 60 mm dishes were prepared as follows: the cells were washed twice with PBS and 200 μl Triton X-100 lysis buffer (2% Triton X-100, 20 mM Tris-Cl, pH 7.4, 150 mM NaCl, 1 mM EDTA, 1 mM EGTA, 2.5 mM NaPPi, 1 mM β-glycerophosphate, 1 mM sodium vanadate, 1:200 Protease Inhibitor Cocktail (EMD Chemicals, San Diego, Calif.) and 1 mM PMSF) were added. […] Protein concentrations were determined by the Bradford assay. […] The supernatants were collected and protein concentrations were determined spectrophotometrically at OD260 and OD280. […] ImageQuant analysis software (Molecular Dynamics, Sunnyvale, Calif.) was used to quantify band intensity.

[2] = system: CD8 positive cytotoxic T-cells; assay: Quantification of CD8 positive cells in muscle; type: in vivo, mouse; conditions: 240 mg/kg i.p. twice daily for 5 weeks, quadriceps
Method: 240 mg/kg body weight of VPA was injected intraperitoneally twice daily into mdx/utrn^−/− mice (n=9) starting at 3 weeks of age, for a period of 5 weeks. Control mice were injected with saline (n=9). Body-weights were determined daily. 8 μm thick cryosections of the quadriceps muscles of saline and VPA injected mice were made. Cytotoxic T-cells were detected with a FITC-labeled rat anti-mouse CD8a antibody (BD Pharmingen, San Diego, Calif.) as follows: the sections were fixed in 4% paraformaldehyde for 5 minutes, washed in PBS three times for 5 minutes each, blocked with 5% BSA/PBS for 1 hour, anti-CD8 antibody added at 1:1000 dilution for 1 hour and washed in 1% BSA/PBS three times for 5 minutes each. The sections were mounted in Vectashield containing DAPI (Vector Laboratories). The number of CD8 positive cells and the total number of nuclei in the same field were counted in ten random fields for each mouse. The ratio of the number of CD positive cells to the total number of nuclei were calculated, averaged and plotted for the saline and VPA treated groups.

α7+/− myotubes [3] = assay: Quantification of apoptosis in myotubes (TUNEL assay); type: cell-based, mouse
Method: Differentiating cultures of α7^+/− cells on 1% gelatin-coated Lab-Tek 8-well chamber slides (Nalge-Nunc International) were exposed to 2 mM VPA on day two of differentiation, and fresh VPA in differentiation medium was added every 24 hours. On day eight of differentiation, the DeadEnd Fluorometric TUNEL assay (Promega) was used to label apoptotic nuclei, following the manufacturer's instructions. The numbers of clusters of apoptotic nuclei in each chamber were counted.

α7+/− myotubes [4] = assay: Quantification of myotube hypertrophy; type: cell-based, mouse
Method: as §1
[…] The cells were stained with anti-myosin heavy chain antibody (MF-20, 1:3 in 1% BSA in PBS) and FITC-conjugated donkey anti-mouse secondary antibody (1:200 in 1% BSA in PBS) for 1 hour each, and mounted in Vectashield with DAPI (Vector Laboratories, Burlingame, Calif.). Micrographs of ten fields were taken for VPA-treated and control myotubes using a Leica DMRXA2 microscope (Leica Microsystems, Germany), AxioCam digital camera (Zeiss Inc., Thorwood, N.Y.) and Openlab software (Improvision, Lexington, Mass.). Areas of myosin heavy chain positive myotubes were measured using Openlab software and the numbers of nuclei in each myotube were counted.
To test whether Akt activation by VPA in α7^+/− myotubes is dependent on PI3K, α7^+/− cells were differentiated for 48 hours and treated for 72 hours with 2 mM VPA with or without 100 nM Wortmannin. Fresh drugs were added every 24 hours. Phase-contrast micrographs of the cultures were captured at the end of 72 hours of treatment. To determine status of Akt activation in the cultures, α7^+/− myotubes were treated as above and protein extracts were made at the end of 72 hours of treatment using a 2% Triton X-100 extraction buffer (see below). Immunoblotting for phospho- and total Akt were done as detailed below.

mdx/utrn−/− mice = assay: Quantification of Evan's blue dye uptake in quadriceps; type: in vivo, mouse; conditions: 240 mg/kg i.p. twice daily for 5 weeks
Method: mdx/utrn−/− mice lack both dystrophin and utrophin, and were bred and genotyped as reported in Burkin, et al., Enhanced expression of the alpha 7 beta 1 integrin reduces muscular dystrophy and restores viability in dystrophic mice, J. Cell Biol. 152:1207-18 (2001). 240 mg/kg body weight of VPA was injected intraperitoneally twice daily into mdx/utrn^−/− mice (n=9) starting at 3 weeks of age, for a period of 5 weeks. Control mice were injected with saline (n=9). Body-weights were determined daily. On the 35th day of injection of VPA, mice were injected intraperitoneally with 100 mg/kg body weight of Evan's blue dye. After 24 hours, the quadriceps muscles were collected, frozen in liquid nitrogen-cooled isopentane and stored at −80° C. 8 μm cryosections of quadriceps were fixed in ice-cold methanol for 1 minute and washed in PBS three times for 5 minutes each. To delineate muscle fibers, the sections were incubated for 10 minutes at room temperature in FITC-conjugated wheat-germ agglutinin (WGA) (Invitrogen) diluted 1:500 in PBS. The sections were washed three times in PBS, 5 minutes each time, and the percentage of Evan's blue dye positive fibers in three sections taken 40 μm apart were counted (approximately 5000 fibers total) for each mouse.

## CCCC(CCC)C(=O)O [VPA, valproic acid]
[1]
  half life: approximately 14 hours
mTOR
  levels of activated mTOR: higher levels
[2]
  decrease of CD8 positive cytotoxic T-cell content: approximately 2.1 fold
α7+/− myotubes [3]; 2 mM VPA from day 2 of differentiation, day 6 of treatment
  fewer apoptotic nuclei (TUNEL positive nuclear clusters) compared with control cells: greater than 5 fold
α7+/− myotubes [3]; 2 mM VPA, phase-contrast
  appearance of cultures after day 8 (controls vacuolated, some detachment): appeared relatively normal
α7+/− myotubes [4]; 2 mM VPA
  number of nuclei per myotube compared to untreated controls: greater numbers of nuclei per myotube
α7+/− myotubes [4]; 2 mM VPA, 72 hours
  myotube area per nucleus, greater than control: 1.6 fold
  myotube size compared to controls (micrographs): larger compared to controls
α7+/− myotubes [4]; 30 mM VPA for 1 hour, observed 72 hours later
  myotube size compared to controls after 1 hour exposure: larger compared to controls
mdx/utrn−/− mice
  fewer damaged (Evans blue positive) fibers than saline: approximately 2 fold
